Source: the NIST ThermoML archive (doi:10.1016/j.jct.2010.12.007)
± gives the expanded uncertainty stated by the source.

How the values were obtained:
[1] = Crystal; for vapor or sublimation pressure: Transpiration method; for Normal melting temperature: DTA
[2] = Molar enthalpy of transition or fusion; details: Crystal; DSC

Structure (SMILES): N#Cc1ccc(NS(=O)(=O)c2ccc(N)cc2)cc1 [4-amino-N-(4-cyanophenyl)benzenesulfonamide]
- vapor or sublimation pressure ([1]; 420.15 K): 6.74e-06 ± 1.4e-06 kPa
- vapor or sublimation pressure ([1]; 420.95 K): 7.23e-06 ± 1.5e-06 kPa
- vapor or sublimation pressure ([1]; 421.35 K): 7.91e-06 ± 1.6e-06 kPa
- vapor or sublimation pressure ([1]; 424.75 K): 1.13e-05 ± 2.3e-06 kPa
- vapor or sublimation pressure ([1]; 426.55 K): 1.36e-05 ± 2.8e-06 kPa
- vapor or sublimation pressure ([1]; 428.35 K): 1.66e-05 ± 3.4e-06 kPa
- vapor or sublimation pressure ([1]; 429.65 K): 1.94e-05 ± 4e-06 kPa
- vapor or sublimation pressure ([1]; 431.35 K): 2.11e-05 ± 4.3e-06 kPa
- vapor or sublimation pressure ([1]; 431.75 K): 2.28e-05 ± 4.6e-06 kPa
- vapor or sublimation pressure ([1]; 432.35 K): 2.33e-05 ± 4.7e-06 kPa
- vapor or sublimation pressure ([1]; 433.05 K): 2.63e-05 ± 5.4e-06 kPa
- vapor or sublimation pressure ([1]; 434.75 K): 3.17e-05 ± 6.5e-06 kPa
- vapor or sublimation pressure ([1]; 435.75 K): 3.58e-05 ± 7.3e-06 kPa
- vapor or sublimation pressure ([1]; 437.15 K): 4.24e-05 ± 8.6e-06 kPa
- vapor or sublimation pressure ([1]; 437.55 K): 4.37e-05 ± 8.9e-06 kPa
- Normal melting temperature [1]: 178.4 ± 0.5 °C
- Molar enthalpy of transition or fusion [2]: 7.39 ± 0.287 kcal/mol

Structure (SMILES): Nc1ccc(S(=O)(=O)Nc2ccc([N+](=O)[O-])cc2)cc1 [4-amino-N-(4-nitrophenyl)benzenesulfonamide]
- vapor or sublimation pressure ([1]; 405.55 K): 1.5e-06 ± 3.2e-07 kPa
- vapor or sublimation pressure ([1]; 409.45 K): 2.18e-06 ± 4.6e-07 kPa
- vapor or sublimation pressure ([1]; 412.85 K): 2.3e-06 ± 4.8e-07 kPa
- vapor or sublimation pressure ([1]; 415.15 K): 3.41e-06 ± 7.1e-07 kPa
- vapor or sublimation pressure ([1]; 417.25 K): 4.01e-06 ± 8.3e-07 kPa
- vapor or sublimation pressure ([1]; 418.75 K): 4.34e-06 ± 9e-07 kPa
- vapor or sublimation pressure ([1]; 420.05 K): 5.46e-06 ± 1.1e-06 kPa
- vapor or sublimation pressure ([1]; 421.55 K): 5.63e-06 ± 1.2e-06 kPa
- vapor or sublimation pressure ([1]; 423.25 K): 6.16e-06 ± 1.3e-06 kPa
- vapor or sublimation pressure ([1]; 424.65 K): 7.3e-06 ± 1.5e-06 kPa
- vapor or sublimation pressure ([1]; 426.25 K): 8.92e-06 ± 1.8e-06 kPa
- vapor or sublimation pressure ([1]; 428.75 K): 1.05e-05 ± 2.1e-06 kPa
- vapor or sublimation pressure ([1]; 431.35 K): 1.28e-05 ± 2.6e-06 kPa
- vapor or sublimation pressure ([1]; 432.05 K): 1.41e-05 ± 2.9e-06 kPa
- vapor or sublimation pressure ([1]; 435.15 K): 1.81e-05 ± 3.7e-06 kPa
- vapor or sublimation pressure ([1]; 438.25 K): 2.28e-05 ± 4.6e-06 kPa
- Normal melting temperature [1]: 165.8 ± 0.5 °C
- Molar enthalpy of transition or fusion [2]: 6.67 ± 0.287 kcal/mol

Structure (SMILES): O=[N+]([O-])c1ccc(NS(=O)(=O)c2ccccc2)cc1 [N-(4-nitrophenyl)benzenesulfonamide]
- vapor or sublimation pressure ([1]; 380.15 K): 9.47e-06 ± 1.9e-06 kPa
- vapor or sublimation pressure ([1]; 384.15 K): 1.55e-05 ± 3.2e-06 kPa
- vapor or sublimation pressure ([1]; 385.15 K): 1.72e-05 ± 3.5e-06 kPa
- vapor or sublimation pressure ([1]; 387.15 K): 2.09e-05 ± 4.3e-06 kPa
- vapor or sublimation pressure ([1]; 390.15 K): 2.84e-05 ± 5.8e-06 kPa
- vapor or sublimation pressure ([1]; 391.15 K): 3.17e-05 ± 6.5e-06 kPa
- vapor or sublimation pressure ([1]; 392.15 K): 3.47e-05 ± 7.1e-06 kPa
- vapor or sublimation pressure ([1]; 393.15 K): 3.88e-05 ± 7.9e-06 kPa
- vapor or sublimation pressure ([1]; 394.15 K): 4.04e-05 ± 8.2e-06 kPa
- vapor or sublimation pressure ([1]; 395.15 K): 4.64e-05 ± 9.4e-06 kPa
- vapor or sublimation pressure ([1]; 396.65 K): 5.13e-05 ± 1e-05 kPa
- vapor or sublimation pressure ([1]; 401.15 K): 8.37e-05 ± 1.7e-05 kPa
- vapor or sublimation pressure ([1]; 401.65 K): 8.63e-05 ± 1.7e-05 kPa
- Normal melting temperature [1]: 138.2 ± 0.5 °C
- Molar enthalpy of transition or fusion [2]: 6.86 ± 0.287 kcal/mol
